From PubChem BioAssay AID2060498 (Molecular Pharmacology Branch, DTP, NCI, 2025)
pIC50: −log10 of the molar value.

System: 171881-019-R-J1-PDC tumor spheroids, viability
Test: Anticancer human tumor 171881-019-R-J1-PDC patient-derived invasive breast carcinoma cell line growth inhibition [GQUAD]
Conditions: spheroids with HUVEC and MSC; for pIC50: curve of first compound; for viability, T/C: stronger effect = lower value
Summary of the method: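 Tumor cells were grown as complex spheroids with HUVEC endothelial cells and mesenchymal stem cells as stroma. G-quadruplex stabilizers were combined with targeted agents over half-log dilutions from near the clinical Cmax, or from 10 microM.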

[1] = second compound 0.0316 µM, first compound 0.0316 µM
[2] = second compound 0.0316 µM, first compound 0.1 µM
[3] = second compound 0.0316 µM, first compound 0.316 µM
[4] = second compound 0.0316 µM, first compound 1 µM
[5] = second compound 0.0316 µM, first compound 3.16 µM
[6] = second compound 0.0316 µM, first compound 10 µM
[7] = second compound 0.1 µM, first compound 0.0316 µM
[8] = second compound 0.1 µM, first compound 0.1 µM
[9] = second compound 0.1 µM, first compound 0.316 µM
[10] = second compound 0.1 µM, first compound 1 µM
[11] = second compound 0.1 µM, first compound 3.16 µM
[12] = second compound 0.1 µM, first compound 10 µM
[13] = second compound 0.316 µM, first compound 0.0316 µM
[14] = second compound 0.316 µM, first compound 0.1 µM
[15] = second compound 0.316 µM, first compound 0.316 µM
[16] = second compound 0.316 µM, first compound 1 µM
[17] = second compound 0.316 µM, first compound 3.16 µM
[18] = second compound 0.316 µM, first compound 10 µM
[19] = second compound 1 µM, first compound 0.0316 µM
[20] = second compound 1 µM, first compound 0.1 µM
[21] = second compound 1 µM, first compound 0.316 µM
[22] = second compound 1 µM, first compound 1 µM
[23] = second compound 1 µM, first compound 3.16 µM
[24] = second compound 1 µM, first compound 10 µM
[25] = second compound 3.16 µM, first compound 0.0316 µM
[26] = second compound 3.16 µM, first compound 0.1 µM
[27] = second compound 3.16 µM, first compound 0.316 µM
[28] = second compound 3.16 µM, first compound 1 µM
[29] = second compound 3.16 µM, first compound 3.16 µM
[30] = second compound 3.16 µM, first compound 10 µM
[31] = second compound 10 µM, first compound 0.0316 µM
[32] = second compound 10 µM, first compound 0.1 µM
[33] = second compound 10 µM, first compound 0.316 µM
[34] = second compound 10 µM, first compound 1 µM
[35] = second compound 10 µM, first compound 3.16 µM
[36] = second compound 10 µM, first compound 10 µM
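Also: spheroids exposed to compounds for 7 days.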
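For viability, T/C in this document: 100% = DMSO vehicle control viability.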

What does the source list for C=CCn1c(=O)c2cnc(Nc3ccc(N4CCN(C)CC4)cc3)nc2n1-c1cccc(C(C)(C)O)n1 + Cc1[nH]c2ccc(F)cc2c1-c1nc2c3cccnc3c3ncccc3c2[nH]1?
pIC50 (second compound 0.0316 µM): 6.20; pIC50 (second compound 0.1 µM): 6.23; pIC50 (second compound 0.316 µM): 6.43; pIC50 (second compound 1 µM): 6.88; pIC50 (second compound 3.16 µM): > 7.50; pIC50 (second compound 10 µM): > 7.50; viability, T/C [1]: 91.2%; viability, T/C [2]: 94%; viability, T/C [3]: 77%; viability, T/C [4]: 31.3%; viability, T/C [5]: 21.4%; viability, T/C [6]: 23.4%; viability, T/C [7]: 103%; viability, T/C [8]: 86%; viability, T/C [9]: 68.1%; viability, T/C [10]: 36.7%; viability, T/C [11]: 20.5%; viability, T/C [12]: 23.2%; viability, T/C [13]: 78.3%; viability, T/C [14]: 65.4%; viability, T/C [15]: 56%; viability, T/C [16]: 28.1%; viability, T/C [17]: 23.1%; viability, T/C [18]: 25%; viability, T/C [19]: 68.1%; viability, T/C [20]: 51.4%; viability, T/C [21]: 42.5%; viability, T/C [22]: 25.5%; viability, T/C [23]: 23.4%; viability, T/C [24]: 21.3%; viability, T/C [25]: 11.4%; viability, T/C [26]: 5.61%; viability, T/C [27]: 5.52%; viability, T/C [28]: 4.19%; viability, T/C [29]: 5.08%; viability, T/C [30]: 4.35%; viability, T/C [31]: 43.9%; viability, T/C [32]: 30.7%; viability, T/C [33]: 23.1%; viability, T/C [34]: 17.5%; viability, T/C [35]: 15.7%; viability, T/C [36]: 13.6%

CC1COCCN1c1cc(-c2ccnn2C)c2ccnc(-c3ccn[nH]3)c2n1 (centres undefined) + CN(C)c1ccc(Nc2c3ccc(NC(=O)CCN4CCCC4)cc3nc3cc(NC(=O)CCN4CCCC4)ccc23)cc1 was tested. Which pIC50 (second compound 0.0316 µM) did it give?
The pIC50 was 7.19.

What about the pIC50 (second compound 0.1 µM) of the same compound?
Its pIC50 is 7.28.

What about the pIC50 (second compound 0.316 µM) of the same compound?
The pIC50 was 7.39.

What about the pIC50 (second compound 1 µM) of the same compound?
Its pIC50 is > 7.50.

What about the pIC50 (second compound 3.16 µM) of the same compound?
Its pIC50 is > 7.50.

And the pIC50 (second compound 10 µM)?
The pIC50 was > 7.50.

What about the viability, T/C [1] of the same compound?
Its viability, T/C is 76.9%.

What about the viability, T/C [2] of the same compound?
The viability, T/C was 34.1%.

What about the viability, T/C [3] of the same compound?
The viability, T/C was 12.4%.

And the viability, T/C [4]?
The viability, T/C was 5.31%.

And the viability, T/C [5]?
Its viability, T/C is 1.79%.

And the viability, T/C [6]?
Its viability, T/C is 1.42%.

And the viability, T/C [7]?
The viability, T/C was 64.8%.

And the viability, T/C [8]?
The viability, T/C was 30.4%.

And the viability, T/C [9]?
Its viability, T/C is 11.6%.

What about the viability, T/C [10] of the same compound?
The viability, T/C was 5.34%.

And the viability, T/C [11]?
Its viability, T/C is 1.93%.

And the viability, T/C [12]?
Its viability, T/C is 1.63%.

What about the viability, T/C [13] of the same compound?
The viability, T/C was 55.2%.

And the viability, T/C [14]?
The viability, T/C was 31.6%.

And the viability, T/C [15]?
The viability, T/C was 10.3%.

What about the viability, T/C [16] of the same compound?
The viability, T/C was 3.25%.

And the viability, T/C [17]?
Its viability, T/C is 1.4%.

And the viability, T/C [18]?
The viability, T/C was 1.07%.

And the viability, T/C [19]?
The viability, T/C was 20.7%.

And the viability, T/C [20]?
The viability, T/C was 8.28%.

What about the viability, T/C [21] of the same compound?
The viability, T/C was 4.88%.

And the viability, T/C [22]?
The viability, T/C was 1.45%.

And the viability, T/C [23]?
Its viability, T/C is 0.66%.

What about the viability, T/C [24] of the same compound?
The viability, T/C was 0.48%.

What about the viability, T/C [25] of the same compound?
The viability, T/C was 1.59%.

What about the viability, T/C [26] of the same compound?
The viability, T/C was 1.01%.

And the viability, T/C [27]?
Its viability, T/C is 0.89%.

What about the viability, T/C [28] of the same compound?
The viability, T/C was 0.34%.

What about the viability, T/C [29] of the same compound?
The viability, T/C was 0.71%.

What about the viability, T/C [30] of the same compound?
The viability, T/C was 0.14%.

And the viability, T/C [31]?
Its viability, T/C is 0.16%.

What about the viability, T/C [32] of the same compound?
The viability, T/C was 0.3%.

What about the viability, T/C [33] of the same compound?
The viability, T/C was 0.33%.

What about the viability, T/C [34] of the same compound?
The viability, T/C was 0.32%.

What about the viability, T/C [35] of the same compound?
The viability, T/C was 0.43%.

What about the viability, T/C [36] of the same compound?
Its viability, T/C is 0.14%.
